Measured values taken from patent US20200222400A1, “METHODS FOR THE TREATMENT OF NEUROLOGICAL DISORDERS” (Yumanity Therapeutics, Inc., priority 2019, published 2020).

Biological target: T1, yeast OLE1 (Saccharomyces cerevisiae, UniProt P21147)
T1 construct: expressed in transfected cells; host or cells: S. cerevisiae ole1Δ strain (W303 pdr1Δ pdr3Δ background), pRS316 plasmid, TDH3 promoter
T1 sequence (P21147 1-510): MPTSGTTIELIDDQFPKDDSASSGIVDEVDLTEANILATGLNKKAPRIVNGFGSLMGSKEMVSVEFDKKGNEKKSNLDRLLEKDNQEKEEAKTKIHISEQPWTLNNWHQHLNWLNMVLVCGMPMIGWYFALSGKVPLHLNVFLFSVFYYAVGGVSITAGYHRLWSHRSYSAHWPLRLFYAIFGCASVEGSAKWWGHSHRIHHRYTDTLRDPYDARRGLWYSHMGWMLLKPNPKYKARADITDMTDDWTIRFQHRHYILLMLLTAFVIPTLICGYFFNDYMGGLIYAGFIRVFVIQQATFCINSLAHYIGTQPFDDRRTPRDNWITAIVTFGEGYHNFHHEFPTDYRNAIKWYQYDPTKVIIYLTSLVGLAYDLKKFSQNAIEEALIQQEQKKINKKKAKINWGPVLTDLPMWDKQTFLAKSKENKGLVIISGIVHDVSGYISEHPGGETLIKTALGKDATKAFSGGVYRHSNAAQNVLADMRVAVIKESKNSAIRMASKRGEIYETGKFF
Assay: Growth of yeast surviving solely on yeast OLE1
Assay type: cell-based
Conditions: percent of DMSO-treated condition
Text: To generate yeast strains expressing SCD1 or SCD5 as the sole desaturase, the human SCD1 and SCD5 genes were cloned from cDNAs (Harvard PlasmID database Clone ID HsCD00340237 for SCD1 and HsCD00342695 for SCD5) into yeast plasmid pRS316 (ATCC 77145) between the yeast TDH3 promoter and the CYC1 terminator. The coding sequence of yeast OLE1 was also cloned into this plasmid). These clones were then transformed into the ole1Δ strain and plated on CSM-Ura media (CSM lacking uracil) with 2% glucose (w/v) and independent colonies were isolated and amplified.
All compound profiling experiments were performed using the same basic protocol. Different genetic backgrounds (e.g., gene deletions) or conditions (e.g., addition of oleic and palmitoleic acid) were replaced as indicated below.
Compound stocks (10 mM in 100% DMSO) were arrayed into 384 round well, v-bottom polypropylene plates and diluted according to indicated dilution factors. Compound administration was performed in two separate steps. First, 15 μL of CSM-Galactose (induces expression of toxic protein) was dispensed into clear 384 well assay plates using a MULTIDROP™ Combi reagent dispenser. The diluted compound stock plates were then applied to the assay plates using an automated workstation (Perkin Elmer JANUS™) outfitted with a 384 pin tool containing slotted pins that deliver 100 nL of compound. The cultures described above were then diluted to a 2× concentration (0.03 and 0.08 for alpha-synuclein and ApoE, final OD600 of 0.015 and 0.04) in CSM-Galactose. For wild-type and Ole1/SCD1/SCD5 plasmid-containing strains, the 2× cell density was 0.02. In all experiments, 15 μL culture was then dispensed into the pinned assay plate to achieve 30 μL of the 1×OD600 culture and a top drug concentration of […]. For 96-well assays (FIGS. 2A and 2B), compound dilutions in DMSO were generated in 96 well plates and 1 μL was manually pipetted into 96 well clear bottom assay plates.
For experiments using a plasmid-borne copy of Ole1, SCD1, or SCD5 (FIGS. 4B, 7, and 8), media lacking uracil (SX-Ura, where X is glucose, raffinose, or galactose), was used for all steps of the compound profiling protocol to ensure its maintenance throughout the assay.
After yeast delivery, assay plates were incubated under humidified conditions at 30° C. for 24 to 40 h. ApoE4 rescue experiments were stopped at 24 h, aSyn experiments at 40 h, Ole1 at 24 h, and SCD1/SCD5 at 40 h. The growth of yeast was monitored by reading the OD600 of each well using a microplate reader (Perkin Elmer EnVision™). For model rescue experiments, raw data were processed by background subtracting and calculating a fold-change relative to DMSO control [(EXP−0.035)/(DMSO−0.035)—where 0.035 is the OD600 contributed by an empty well containing 30 μL of media alone]. For growth inhibition of wild-type cells, raw data were processed by background subtracting and converting values to a percent of the nontreated condition for that strain [(EXP−0.035)/(DMSO−0.035)×100%].

## Cc1nnc(-c2ccc(N3CCC(Oc4cc(F)ccc4Cl)CC3)nn2)o1 [CAY10566]
  growth inhibition of yeast expressing OLE1: resistant
